Experimental data reported in patent US12629410B2, “Multi-antigenic peptide mimics of gonococcal lipo-oligosaccharide (LOS) epitopes” (priority 2019, dated 2026).
“Also recorded” adds a separate entry of the source. Bridges are numbered along the chain shown (N, C = ends).

Key:
15253 ΔlgtG LOS = test: ELISA of immune sera against 2C7-negative LOS (specificity); type: in vivo, N. gonorrhoeae; conditions: sera of mice immunized with TMCP2 + GLA-SE
Protocol: Microtiter wells were coated with LOS purified from 15253 or 15253 ΔlgtG (80 μg/ml) in PBS as described previously. Serial dilutions of immune sera were dispensed into wells and bound anti-LOS Ab was disclosed with anti-mouse IgG conjugated to alkaline phosphatase. A standard curve for mouse IgG was generated by coating wells with anti-mouse IgG (Sigma) and pure mouse IgG (Sigma) also as described previously.

[1] = tested on: N. gonorrhoeae strain FA1090; test: Mouse vaginal colonization model (protection experiment); type: in vivo; conditions: BALB/c n=14/group; TMCP2 50 μg + GLA-SE, 3 doses 2 weeks apart
Protocol: Use of animals in this study was performed in strict accordance with the recommendations in the Guide for the Care and Use of Laboratory Animals of the National Institutes of Health. The protocol was approved by the Institutional Animal Care and Use Committee (IACUC) at the University of Massachusetts Medical School. The BALB/c mouse model of vaginal colonization described by Jerse was used (25). Two weeks after the last immunization, mice in the diestrus phase of the estrous cycle were started on treatment (that day) with 0.1 mg PREMARIN® (Pfizer; a mixture of sodium estrone sulfate and sodium equilin sulfate also containing sodium sulfate conjugates of 17α-dihydroequilin, 17α-estradiol and 17β-dihydroequilin) in 200 μl of water, given subcutaneously on each of three days; −2, 0 and +2 days (before, the day of and after gonococcal inoculation) to prolong the estrus phase of the reproductive cycle and promote susceptibility to N. gonorrhoeae infection. […]
Experiments that compared clearance of N. gonorrhoeae in independent groups of mice estimated and tested three characteristics of the data (13): 1) time to clearance; 2) longitudinal trends in mean log10 CFU; 3) and the cumulative CFU as area under the curve (AUC). […] A quadratic or cubic function in time was determined to provide the best fit; random slopes were linear in time. […]

[(CH2-CO-GPIPVLDENGLFAPGPC)-K-OH]4 ({CH2CO}-GPIPVLDENGLFAPGPCK-OH; thioether N-17; also: tetrameric MAP) [TMCP2]
IgG reactivity of immune sera with 15253 ΔlgtG LOS (15253 ΔlgtG LOS): non-reactivity; also recorded: no IgG binding | gonococcal colonization, biweekly schedule [1]: effectively attenuated gonococcal colonization
